Experimental data from the supplement of paper PMC10307832.

What follows are cell lines tested with C1=CC2=NC=CN=C2C=C1/C=C/3\C(=O)NC(=O)S3 + C[C@@H](Oc1cc(-c2cnn(C3CCNCC3)c2)cnc1N)c1c(Cl)ccc(F)c1Cl [Crizotinib] (partner 1 µM) (assay: relative viability (nuclei count vs DMSO), 5 days (fraction); higher = more cells survive). Details: first compound 0.02 µM.
Procedure, shortened: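 For relative viability, nuclei counts in treated wells were divided by those in vehicle wells. Lung cancer cell lines had been pin-tool dosed in 1536-well plates the day after seeding and cultured for 5 days, then fixed and stained in one step (final 0.05% Triton X-100, 1% formaldehyde, 1 ug/ml Hoechst) and imaged at 4×. Doses were one drug alone or a fixed anchor-drug dose plus five library-drug doses (not always all listed) in √10 steps, and values are duplicate-plate medians.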

Row | Cell Line | relative viability
1 | NCI-H727 | 0.768
2 | NCI-H1650 | 0.91
3 | EBC-1 | 0.17
4 | NCI-H1703 | 0.638
5 | NCI-H1993 | 0.914
6 | SW 1573 | 0.729
7 | NCI-H838 | 0.778
8 | LCLC-103H | 1.08
9 | NCI-H520 | 0.721
10 | NCI-H2126 | 0.995
11 | EMC-BAC-2 | 0.733
12 | NCI-H2085 | 0.897
13 | Calu-6 | 0.781
14 | HCC-366 | 0.441
15 | NCI-H1666 | 0.992
16 | NCI-H596 | 0.976

Row | Cell Line | relative viability
17 | LK-2 | 0.311
18 | NCI-H2087 | 0.849
19 | SK-MES-1 | 0.965
20 | H3255 | 0.851
21 | COR-L23 | 0.65
22 | COR-L 105 | 0.613
23 | IA-LM | 0.654
24 | LOU-NH91 | 0.717
25 | ChaGo-K-1 | 1.02
26 | NCI-H2170 | 1.14
27 | NCI-H2405 | 0.865
28 | HOP-62 | 1.1
29 | HCC-44 | 0.721
30 | A549 | 0.791
31 | NCI-H441 | 0.577
32 | NCI-H1299 | 0.955

Same assay, conditions: first compound 0.06325 µM

Row | Cell Line | relative viability
33 | NCI-H727 | 0.842
34 | NCI-H1650 | 1.19
35 | EBC-1 | 0.217
36 | NCI-H1703 | 0.701
37 | NCI-H1993 | 1.03
38 | SW 1573 | 0.816
39 | NCI-H838 | 1.12
40 | LCLC-103H | 0.943
41 | NCI-H520 | 1.01
42 | NCI-H2126 | 1.11
43 | EMC-BAC-2 | 0.767
44 | NCI-H2085 | 0.917
45 | Calu-6 | 0.744
46 | HCC-366 | 0.306
47 | NCI-H1666 | 1.02
48 | NCI-H596 | 0.87

Row | Cell Line | relative viability
49 | LK-2 | 0.252
50 | NCI-H2087 | 0.954
51 | SK-MES-1 | 1.11
52 | H3255 | 0.929
53 | COR-L23 | 0.649
54 | COR-L 105 | 0.887
55 | LOU-NH91 | 0.761
56 | ChaGo-K-1 | 0.613
57 | NCI-H2170 | 1.22
58 | NCI-H2405 | 0.847
59 | HOP-62 | 0.953
60 | HCC-44 | 0.808
61 | A549 | 0.901
62 | NCI-H441 | 0.716
63 | NCI-H1299 | 1.03

Same assay, conditions: first compound 0.2 µM

Row | Cell Line | relative viability
64 | NCI-H727 | 0.75
65 | NCI-H1650 | 0.974
66 | EBC-1 | 0.21
67 | NCI-H1703 | 0.656
68 | NCI-H1993 | 0.806
69 | SW 1573 | 0.825
70 | NCI-H838 | 0.737
71 | LCLC-103H | 1.06
72 | NCI-H520 | 0.713
73 | NCI-H2126 | 0.97
74 | EMC-BAC-2 | 0.76
75 | NCI-H2085 | 0.766
76 | Calu-6 | 0.758
77 | HCC-366 | 0.605
78 | NCI-H1666 | 1.05
79 | NCI-H596 | 1.06

Row | Cell Line | relative viability
80 | LK-2 | 0.236
81 | NCI-H2087 | 0.707
82 | SK-MES-1 | 1.02
83 | H3255 | 0.746
84 | COR-L23 | 0.576
85 | COR-L 105 | 0.905
86 | IA-LM | 0.857
87 | LOU-NH91 | 0.745
88 | ChaGo-K-1 | 1.12
89 | NCI-H2170 | 1.2
90 | NCI-H2405 | 0.826
91 | HOP-62 | 1.03
92 | HCC-44 | 0.807
93 | A549 | 0.782
94 | NCI-H441 | 0.698
95 | NCI-H1299 | 0.932

Same assay, conditions: first compound 0.6325 µM

Row | Cell Line | relative viability
96 | NCI-H727 | 0.794
97 | NCI-H1650 | 0.966
98 | EBC-1 | 0.178
99 | NCI-H1703 | 0.811
100 | NCI-H1993 | 0.848
101 | SW 1573 | 0.831
102 | NCI-H838 | 0.751
103 | LCLC-103H | 1.03
104 | NCI-H520 | 0.785
105 | NCI-H2126 | 0.974
106 | EMC-BAC-2 | 0.661
107 | NCI-H2085 | 0.829
108 | Calu-6 | 0.704
109 | HCC-366 | 0.441
110 | NCI-H1666 | 1.01
111 | NCI-H596 | 0.989

Row | Cell Line | relative viability
112 | LK-2 | 0.22
113 | NCI-H2087 | 0.804
114 | SK-MES-1 | 0.981
115 | H3255 | 0.916
116 | COR-L23 | 0.582
117 | COR-L 105 | 0.814
118 | IA-LM | 0.998
119 | LOU-NH91 | 0.755
120 | ChaGo-K-1 | 1.07
121 | NCI-H2170 | 1.16
122 | NCI-H2405 | 0.869
123 | HOP-62 | 0.93
124 | HCC-44 | 0.836
125 | A549 | 0.671
126 | NCI-H441 | 0.827
127 | NCI-H1299 | 0.89

Same assay, conditions: first compound 2 µM

Row | Cell Line | relative viability
128 | NCI-H727 | 0.517
129 | NCI-H1650 | 1.22
130 | EBC-1 | 0.171
131 | NCI-H1703 | 0.674
132 | NCI-H1993 | 0.668
133 | SW 1573 | 0.742
134 | NCI-H838 | 0.823
135 | LCLC-103H | 0.925
136 | NCI-H520 | 0.756
137 | NCI-H2126 | 0.957
138 | EMC-BAC-2 | 0.763
139 | NCI-H2085 | 0.937
140 | Calu-6 | 0.781
141 | HCC-366 | 0.409
142 | NCI-H1666 | 1.07
143 | NCI-H596 | 1
144 | LK-2 | 0.235
145 | NCI-H2087 | 0.8
146 | SK-MES-1 | 1
147 | H3255 | 0.886
148 | COR-L23 | 0.699
149 | COR-L 105 | 0.711
150 | IA-LM | 0.718
151 | LOU-NH91 | 0.72
152 | ChaGo-K-1 | 1.02
153 | NCI-H2170 | 1.34
154 | NCI-H2405 | 0.798
155 | HOP-62 | 0.911
156 | HCC-44 | 0.575
157 | A549 | 0.646
